Series [1] concerns orthotopic human breast cancer cell line transplant (cell line MDA-MB-231). Conditions: ref Gallagher et al., 2016; cited from earlier work.
The conditions of series [2]: ref Gallagher et al., 2016, cited from earlier work; for plasma half-life: separate experiment, in vitro or in vivo not stated.
For series [3] the following is noted: ref Iusuf et al., 2008; cited from earlier work.
For series [4], the system named is rats given LPS to induce cachexia. Nature of the series: LPS. In kind it is in vivo, rat. To be noted: for oral anticachexia activity: LPS challenge, oral route of peptide administration; for body weight as percent of pre-LPS baseline (Fig 1 Panel D) / food intake (Fig 1 Panel C): rats given LPS, peptide IP at 2mg/kg, 24 hours following challenge, 8/group.
The nature of series [5]: Plasma and liver concentration of antiviral peptides after oral gavage in mice. In kind it is in vivo, female mice. To be noted: for level at time molar at 0.5 h / level at time molar at 2 h / level at time molar at 4 h / level at time molar at 1 h / level at time molar at 2.5 h: female, mouse, po; for level at time molar at 0.5 h / level at time molar at 2 h / level at time molar at 4 h: 60 mg/kg; for level at time molar at 1 h / level at time molar at 2.5 h: 72 mg/kg.

For series [6], the system named is HCV replicon. Conditions: cellular HCV replicon assay; ref Bradford and Cowan, 2012; cited from earlier work.
A short description of series [7]: Pharmacokinetics of TCMCB07 in anesthetized rats: plasma and bile levels. It is filed as in vivo, Sprague-Dawley rats.
For series [8], the system named is hepatitis C virus (HCV) RNA. Nature of the series: Standard solution assays of anti-hepatitis C activity. It is filed as biochemical.
Series [9] concerns Lewis sarcoma rat model. Put plainly: Lewis sarcoma rat cancer cachexia model. Conditions: tumor-bearing rats, SC; for summary 6-Day food intake: two daily doses. In kind it is in vivo.

The values that follow come from doi:10.1101/507434v1 (bioRxiv, 2018).

Read-outs that look alike come from different tables or passages of the source. Bridge positions count the residues as written; N and C are the ends. Square brackets hold non-standard residues; d marks the D form. Ends that are not written are not given here. Peptide text beside a SMILES is read from it. d2Nal = N[C@H](Cc1ccc2ccccc2c1)C(=O)O; Nle = CCCC[C@H](N)C(=O)O

For “Asp-Arg-Val-Tyr-Ile-His-Pro-OH [angiotensin^1-7, reference compound]”, in series [1], the oral activity entry was “not orally active”. Further, the plasma half-life in series [2] was 0.5 h; in [3] it was around 0.5 h.

As for “Ac-Nle-c(Asp-Arg-Val-Tyr-Ile-His-Pro-Lys)-D-Val-D-Pro-NH2 (sidechain bridge or staple) [TCANG05]”, the oral activity entry in [1] is “orally active”. Further, the plasma half-life in [2] was 50 h. The “stability compared to angiotensin 1-7” value in series [2] (using in vitro and in vivo assays) is “greatly enhanced stability”.

Take “Ac-Nle-^1 c(Asp-Pro-D-Nal2’-Arg-Trp-Lys)-D-Pro-D-Val-NH2 (sidechain bridge or staple) [TCMCB02]”: the oral anticachexia activity result in series [4] (rats) is “no oral anticachexia activity”. Besides, the “overnight body weight gain” value in series [4] (rats, parenteral peptide after parenteral LPS, end of 12 hr dark cycle, n=6) was around 5%.

Regarding “GGHY[dR]FK [Metallo-drug 2-Cu, reference compound]”, the oral availability result in [5] (mice, oral gavage, also short circulating half-life and poor liver uptake stated) is “no oral availability”. Besides, in [6], the antiviral activity result is “confirmed”.

For `CCCC[C@H](NC(C)=O)C(=O)N[C@H]1CC(=O)NCCCC[C@@H](C(=O)N[C@@H](C(=O)N2CCC[C@@H]2C(N)=O)C(C)C)NC(=O)[C@H](Cc2c[nH]c3ccccc23)NC(=O)[C@H](CCCN=C(N)N)NC(=O)[C@@H](Cc2ccc3ccccc3c2)NC(=O)[C@@H]2CCCN2C1=O` [TCMCB07] (Ac-[Nle]DP[d2Nal]RWK[dV][dP]-NH2; lactam 2-7), the Tmax in series [7] (Sprague-Dawley, rat, plasma, sc, 3 mg/kg) was 2.5 h. Further, in [7] (anesthetized rats, 3mg/kg SC (Fig. 3)), the “in vivo mechanism of clearance” value is on record as “hepatic blood-to-bile transport”.

Regarding `CC(=O)NCC(=O)NCC(=O)N[C@@H](Cc1c[nH]cn1)C(=O)N[C@H]1CC(=O)NCCCC[C@@H](C(=O)N[C@@H](C(=O)N2CCC[C@@H]2C(N)=O)C(C)C)NC(=O)[C@H](CCCCN)NC(=O)[C@H](Cc2ccccc2)NC(=O)[C@H](CCCNC(=N)N)NC(=O)[C@H](Cc2ccc(O)cc2)NC(=O)[C@@H]2CCCN2C1=O` [TCMP03] (Ac-GGHDPYRFKK[dV][dP]-NH2; lactam 4-10), the “solution antihepatitis activity relative to the parent peptide Metallo-drug 2-Cu” value in [8] is “within a factor of two”. In addition, in series [5] (liver), the level at time molar at 0.5 h came to 43 nM, the level at time molar at 2 h was 30 nM and the level at time molar at 4 h is 4 nM. In addition, in series [5] (plasma), the level at time molar at 0.5 h is 2910 nM, the level at time molar at 2 h turned out to be 75700 nM and the level at time molar at 4 h was 384 nM. In addition, the “enhancement of hepatic (target tissue) uptake relative to TCMP01” value in series [5] (mice, oral gavage, Table 3) was determined as 4 fold.

As for “Ac-Nle-c[Asp-Pro-D-Nal(2′)-Arg-Trp-Lys]-β-Pro-β^3-Val-NH2 (sidechain bridge or staple) [TCMCB06]”, in series [4], the “body weight as percent of pre-LPS baseline (Fig 1 Panel D)” value (from here on “body weight as percent”) was “no weight gain”.

As for “Ac-Nle-c[Asp-Pro-D-Nal(2′)-Arg-Trp-Lys]-β-Pro-β^2-Val-NH2 (sidechain bridge or staple) [TCMCB05]”, in [4], the “body weight as percent” value was “produced a significant weight gain” and the “food intake (Fig 1 Panel C)” value was “stimulated appetite”.

`CC(=O)NCC(=O)NCC(=O)N[C@@H](Cc1c[nH]cn1)C(=O)N[C@H]1CC(=O)NCCCC[C@@H](C(=O)N[C@@H](C(=O)N2CCC[C@@H]2C(N)=O)C(C)C)NC(=O)[C@H](CCCCN)NC(=O)[C@H](Cc2ccccc2)NC(=O)[C@H](CCCNC(=N)N)NC(=O)[C@H](Cc2ccc(O)cc2)NC1=O` [TCMP01] (Ac-GGHDYRFKK[dV][dP]-NH2; lactam 4-9): in series [8], the “solution antihepatitis activity relative to the parent peptide Metallo-drug 2-Cu” value is recorded as “within a factor of two”. For the same compound, in [5] (liver), the level at time molar at 1 h stood at 14 nM and the level at time molar at 2.5 h stood at 4 nM. In [5] (plasma), this compound yielded a level at time molar at 1 h of 1000 nM and a level at time molar at 2.5 h of 24 nM.

`CCCC[C@H](NC(C)=O)C(=O)N[C@H]1CC(=O)NCCCC[C@@H](C(=O)N[C@@H](C(=O)N2CCC[C@@H]2C(N)=O)C(C)C)NC(=O)[C@H](Cc2c[nH]c3ccccc23)NC(=O)[C@H](CCCNC(=N)N)NC(=O)[C@@H](Cc2ccc3ccccc3c2)NC(=O)[C@@H]2CCCN2C1=O` [TCMCB07] (Ac-[Nle]DP[d2Nal]RWK[dV][dP]-NH2; lactam 2-7): the “tumor weight / tumor growth” value in series [9] (1.5 and 3 mg/kg BW/day, data not shown) was “no effect on tumor growth”. Moreover, the “summary 6-Day food intake” value in series [9] (total 1.5 mg/kg BW/day (LB07)) and in [9] (total 3mg/kg BW/day (HB07)) was “not different than Sham/saline controls” throughout. Moreover, the “body weight as percent” value in series [4] is listed as “produced a significant weight gain”. Moreover, in series [4], the “food intake (Fig 1 Panel C)” value was “stimulated appetite”. Besides, the oral anticachexia activity entry in series [4] (rats) is reported as “shown to have oral anticachexia activity”.
